Columns and labels:
[1] = test system: osteocalcin (Ocn) in pre-osteoblastic cell line MC3T3-E1 subclone 4; test: Osteocalcin mRNA levels (qPCR); format: cell-based; conditions: 21 days of differentiation, without ascorbic acid; MK-7 3 μM, VitA 100 nM, VitD 1 nM; FIG. 1B
Experimental: (§1) (A) ALP activity after 7 days of differentiation (without ascorbic acid). (B) Osteocalcin mRNA levels after 21 days of differentiation (without ascorbic acid). (C) Osteocalcin mRNA levels after 28 days of differentiation (with ascorbic acid). Pos=positive control; Neg=negative control; MK-7=supplemented with 3 μM menaquinone-7; VitD=supplemented with 1 nM 1α,25-Dihydroxyvitamin D3; VitA=supplemented with 100 nM all-trans-retinoic acid.
The pre-osteoblastic cell line MC3T3-E1 subclone 4 (CRL-2593) was purchased from ATCC (Manassas; Virginia, USA). Cells were maintained in growth medium (GM) composed of ascorbic acid-free αMEM (ThermoFisher Scientific), supplemented with 10% fetal calf serum (FCS, ThermoFisher Scientific) and 1% penicillin/streptomycin. All culture media were refreshed every 2-3 days. Cells were passaged with trypsin/EDTA solution at less than 80% confluence. To induce differentiation into osteoblasts, cells were seeded at 5×10^4 cells/cm^2 and grown to confluency in GM for 24 h. Then, the medium was switched to differentiation medium (DM) composed of GM supplemented with 10 mM β-glycerophosphate and treatment solutions of interest. Ascorbic acid 50 μg/ml was also added to the DM depending on the experiment.
MC3T3-E1 subclone 4 cells were differentiated for 21 days (in DM without ascorbic acid except for the positive control) or 28 days (in DM containing ascorbic acid). Cells were then collected for gene expression analysis. RNA was extracted using the RNeasy plus mini kit (Qiagen; Hilden, Germany) with the QIAcube (Qiagen,) according to the manufacturer's instructions. Briefly, cells were lysed in RLT buffer and spun in a QIAshredder column (Qiagen) before being processed by the QIAcube. RNA concentrations were measured using the DropSense96 (TRINEAN, Gentbrugge, Belgium).
cDNAs were synthetized using High-Capacity cDNA Reverse Transcription Kit (AppliedBiosystems; Waltham, Massachusetts, USA) according to the manufacturer's instructions. […] The relative gene expression was evaluated via the 2^-ΔCt method.

[2] = test system: pre-osteoblastic cell line MC3T3-E1 subclone 4; test: Osteoblast alkaline phosphatase (ALP) activity; format: cell-based; conditions: 7 days of differentiation, without ascorbic acid; MK-7 3 μM, VitA 100 nM all-trans-retinoic acid, VitD 1 nM 1α,25-Dihydroxyvitamin D3; FIG. 1A
Experimental: as §1
ALP activity after 7 days of differentiation (without ascorbic acid). […]
The effect of SCFAs was further investigated. Three mixes of 75% acetate, 20% propionate, 5% butyrate were evaluated to mimic normal physiological conditions (20 μM SCFAs), physiological conditions following prebiotic supplementation (50 μM SCFAs), and physiological conditions following synbiotic supplementation (60 μM SCFAs). […]
After 7 days of differentiation, cells were then collected for alkaline phosphatase (ALP) activity measurement as described previously with minor modifications. […] Enzymatic reaction was monitored at 405 nm after 4-Nitrophenyl phosphate disodium salt hexahydrate addition. Michaelis-Menten kinetics were evaluated at 30° C. for 30 min. […] The activity value was normalized by protein content measured via the Pierce BCA Protein Assay Kit (ThermoFisher Scientific) according to the manufacturer's instructions.

| SMILES | effect on osteocalcin expression [1] | effect on ALP activity (marker of osteoblast differentiation) [2] |
| --- | --- | --- |
| C=C1/C(=C\C=C2/CCC[C@]3(C)[C@@H]([C@H](C)CCCC(C)(C)O)CC[C@@H]23)C[C@@H](O)C[C@@H]1O [vitamin D, 1α,25-Dihydroxyvitamin D3] | no significant effect | – |
| CC1=C(/C=C/C(C)=C/C=C/C(C)=C/C(=O)O)C(C)(C)CCC1 [vitamin A, all-trans-retinoic acid] | no significant effect | – |
| CC(C)=CCC/C(C)=C/CC/C(C)=C/CC/C(C)=C/CC/C(C)=C/CC/C(C)=C/CC/C(C)=C/CC1=C(C)C(=O)c2ccccc2C1=O [vitamin K2, menaquinone-7] | significant effect | no significant effect |
